This is an account of results in paper PMC11229374, “Unlocking the potential of protein-derived peptides to target G-quadruplex DNA: from recognition to anticancer activity” (Nucleic Acids Research, 2024).

*: point of attachment. FITC = O=C1OC2(c3ccc(O)cc3Oc3cc(O)ccc32)c2ccc(NC(=S)*)cc21; AEEA = NCCOCCOCC(=O)O

One series deals with U2OS cells. In words: Viability assay (crystal violet), U2OS. It is filed as cell-based. Particulars: 72 h treatment. As to the method: U2OS, HCT116 and MDA-MB-231 cells were purchased from the ATCC and grown in Dulbecco modified Eagle's medium (DMEM; EuroClone, Milan, Italy; ECM0728L) supplemented with 10% Fetal Bovine Serum (FBS, ThermoFisher Scientific/Gibco, Waltham, MA, USA; 10270-106), 2 mM L-glutamine and antibiotics in a humidified incubator at 37°C with 5% CO2 and atmospheric O2 concentration. Cell lines were authenticated and tested to be mycoplasma-free.
U2OS, HCT116, and MDA-MB-231 cells were seeded in 24-well plates at a density of 1 × 10^4, 20 × 10^3 and 12 × 10^3 for each well, respectively. After 24 h, cells were treated with the indicated peptides and incubated at 37°C for additional 72 h. Upon treatment completion, cell medium was removed, the wells were washed twice in phosphate-buffered saline (PBS) and fixed with 4% formaldehyde for 15 min at room temperature (RT). After washing, 500 μl of crystal violet staining solution (Sigma-Aldrich, St. Louis, MO, USA) was added to each well and incubated for 30 min at RT. Finally, the plates were rinsed twice with water, air-dried and cell pellets were dissolved in 400 μl of a 10% aqueous solution of acetic acid. In total, 200 μl of each sample was transferred to a 96-well plate, and the optical density was measured at 570 nm (OD570) with an ELISA reader (Thermo Scientific, Waltham, MA, USA). The average absorbance in each condition was used to calculate the viability expressed as a percentage of treated vs untreated conditions (CTR).

The next series concerns γH2AX in U2OS cells. Nature of the series: Immunofluorescence of γH2AX (DNA damage). It is filed as cell-based. The settings on record: 10 μM peptide, 24 h. How it is done:
To evaluate telomere-localized DNA damage, FISH assay with a telomeric probe was combined to IF staining of γH2AX. Cells were seeded on glass coverslips in a 6-well plate at a density of 1 × 10^5 cells/well. After 24 h of treatment with indicated peptides, cells were washed three times with PBS 1×, fixed with formaldehyde 4% in PBS for 2 min at RT and washed three times with PBS 1×. The fixation protocol was repeated twice and then the samples were dehydrated by sequential exposure to 70%, 90% and 100% EtOH and DNA was denatured by incubation at 80°C for 3 min in the presence of the telomere probe solution (10 mM of Tris pH 7.2, MgCl2 buffer, 70% of deionized formamide, […] of TelC-Cy3 telomeric probe (Panagene, Daejeon, Korea), 0.25% of blocking reagent). […] For quantitative analysis of γH2AX positive cells, at least 200 cells/condition were scored in triplicate. For Telomere-Induced Foci (TIFs) analysis, at least 25 γH2AX-positive cells on a single plane were scored. […] Fluorescence signals were recorded with Zeiss Laser Scanning Microscope 510 Meta (63× magnification) (Zeiss, Germany) and the experiment was analyzed with Adobe Photoshop CC 2019.

A further series concerns HER2. Nature of the series: Real-time RT-PCR of HER2 expression. The format is cell-based. The settings on record: U2OS, 10 μM peptide, 8, 16 and 24 h. How it is done:
(§1) U2OS cells were seeded on glass coverslips in a 6-well plate at a density of 2 × 10^5 cells/well and treated with the peptides for 8, 16, and 24 h. Total RNA was isolated from the cell lines using WizPrep™ Total RNA Mini Kit (Cell). The quality and the quantity of RNA extraction was assessed by evaluating the A280/A260 nm and A260/A230 nm absorbance ratio (Nanodrop 1000, Thermo Fisher Scientific). The mRNA Reverse Transcription (RT) was performed using the QuantiTect Reverse Transcription Kit (Qiagen). mRNA expression was evaluated by SYBR Green (Applied Biosystems) in the QuantStudio 6 Flex Detection system (ThermoFisher Scientific). Primer sequences are indicated in Supplementary Table S2.
On the technique in general: In qPCR the cycle at which signal appears reflects the starting amount.

The next series has as its system BCL-2. In words: Real-time RT-PCR of BCL-2 expression. It is filed as cell-based. The settings on record: U2OS, 10 μM peptide, 8, 16 and 24 h. As to the method:
as §1

For the next series, the system named is G4. In words: CD experiments, G4-stabilizing properties of R7W conjugate versus parent. The format is binding. Particulars: CD experiments (Supplementary Figure S39). The source says:
The buffer baseline was subtracted from each spectrum.

In a further series the target is T1, FITC-MybA400 (UniProt P11938 397-415, G400A).
T1 chain: {FITC-AEEA}-NHTANSIRHRFRVYLSKRL-NH2
Nature of the series: MST; 20 mM K+; 5 mM KH2PO4/K2HPO4 pH 7.0, 20 mM KCl (LiCl for c-MYC stock), 25 C; MST with 0.1% Tween and 5% DMSO, 20 nM FITC-peptide. Particulars: tags: N-terminal FITC; parallel G4.

The next series addresses T2, FITC-Myb397-415 (UniProt P11938 397-415).
T2 chain: {FITC-AEEA}-NHTGNSIRHRFRVYLSKRL-NH2
Nature of the series: microscale thermophoresis; 5 mM KH2PO4/K2HPO4, 20 mM KCl (c-MYC stock annealed in LiCl), pH 7.0; MST 25 C with 0.1% Tween, 5% DMSO, 20 nM labelled peptide, DNA titrated (stocks from 10 or 20 uM, mixed 1:1); ITC 25 C. Particulars: tags: N-terminal FITC-O2Oc; C-terminal NH2; parallel G4.

For a further series, the target named is T3, MybA412 (Saccharomyces cerevisiae, UniProt P11938 397-415, S412A).
T3 chain: NHTGNSIRHRFRVYLAKRL
In words: isothermal titration calorimetry; 5 mM KH2PO4/K2HPO4, 20 mM KCl (c-MYC stock annealed in LiCl), pH 7.0; MST 25 C with 0.1% Tween, 5% DMSO, 20 nM labelled peptide, DNA titrated (stocks from 10 or 20 uM, mixed 1:1); ITC 25 C. Particulars: tags: N-acetyl; C-terminal NH2; chain copies: 2; parallel G4.

The target in another series is T4, MybA400 (UniProt P11938 397-415, G400A).
T4 chain: NHTANSIRHRFRVYLSKRL
The description is as above. Particulars: tags: N-acetyl; C-terminal NH2; chain copies: 2; parallel G4.

The target in the next series is T5, Myb397-415 (UniProt P11938 397-415).
T5 chain: NHTGNSIRHRFRVYLSKRL
Described as above. The settings on record: tags: N-acetyl; C-terminal NH2; chain copies: 2; parallel G4.

Take “RRRRRRRW-GG-NHTANSIRHRFRVYLSKRL [R7W-Myb^A400, Myb^A400 N-terminally conjugated to the cell-penetrating peptide R7W via a glycine–glycine spacer]”: the “Inhibition of tumour cell growth, R7W-conjugated peptides” value in the series with U2OS cells was “essentially to the same extent as R7W-Myb^397–415”. Also, in the series on γH2AX in U2OS cells, the “Accumulation of phosphorylated histone H2AX (γH2AX)” value was “most pronounced response”.
Take “RRRRRRRW-GG-NHTGNSIRHRFRVYLSKRL [R7W-Myb^397–415]”: the IC50 in the series on U2OS cells (read-out: IC50 (concentration of drug capable of killing 50% of cells)) was about 5 µM. Moreover, the HER2 expression level result in the series with HER2 is reported as “transiently modulated”. The BCL-2 expression level entry in the series on BCL-2 is listed as “transiently modulated”. Further, the “G4-stabilizing properties compared with Myb^397–415” value in the series on G4 was “no significant differences”.
As usually defined, the Kd is the constant that tells how readily two partners part at equilibrium. A lower Kd goes with higher affinity. For the molecule CGGGCGGGCGCTAGGGAGGGT (structured_DNA) [c-KIT2], the dissociation constant Kd with FITC-MybA400 is about 170 nM; in the series with FITC-Myb397-415 it was 130 ± 15 nM; in the series with MybA412, 187 ± 28 nM; with MybA400, 137 ± 24 nM; in the series with Myb397-415, 200 ± 12 nM.
